Source: US9597407B2, “Targeted antimicrobial moieties” (C3 Jian, Inc., priority 2009, dated 2017)
“Also recorded” adds a separate entry of the source.

System: bacteria
Assay: Binding of targeting peptides to microorganisms (Table 3)
Settings: microorganism bound by the targeting peptide; binding in aqueous buffers chosen by peptide solubility, preferably 1x PBS

| Substance | Target(s) |
| --- | --- |
| PF-314 (ECLKKAIKSKALNKAFKIDVPDEVYDNLLMELEEYEK; Peptide with targeting and/or antimicrobial activity) | S. mutans |
| PF-317 (LILVSDI; Peptide with targeting and/or antimicrobial activity) | S. mutans |
| PF-320 (DSGYYALLENKEERVVWDGEVVANNIFNNLWIVVNKVKTG; Peptide with targeting and/or antimicrobial activity) | S. mutans; also recorded: E. coli |
| PF-323 (ARESIEKSHVPVDATIVGVVDSFEVFDE; Peptide with targeting and/or antimicrobial activity) | S. mutans |
| PF-324 (HFSLL; Peptide with targeting and/or antimicrobial activity) | C. difficile |
| PF-325 (LTIDEKLRNHR; Peptide with targeting and/or antimicrobial activity) | S. mutans; also recorded: E. coli |
| PF-326 (VIVGNLGAQKEKRNDTPISAKKDIMGDKTVRVRADLHH; Peptide with targeting and/or antimicrobial activity) | S. mutans; also recorded: E. coli |
| PF-328 (NGNEKAFSEVENLVK; Peptide with targeting and/or antimicrobial activity) | S. mutans |
| PF-329 (IGILFDKSVRKY; Peptide with targeting and/or antimicrobial activity) | S. epidermidis |
| PF-333 (YMTKKLVEMAEQQMAGKSNR; Peptide with targeting and/or antimicrobial activity) | S. mutans |
| PF-334 (QQYLILDRM; Peptide with targeting and/or antimicrobial activity) | S. epidermidis; also recorded: C. difficile |
| PF-337 (YMTKKLVEMAERQMAGK; Peptide with targeting and/or antimicrobial activity) | S. epidermidis |
| PF-338 (KGTSCPDQLSKAIRQSI; Peptide with targeting and/or antimicrobial activity) | S. mutans |
| PF-340 (VKDVLLELFNKIIGA; Peptide with targeting and/or antimicrobial activity) | S. mutans; also recorded: E. coli |
| PF-348 (ESASAAEWYNPNMNVKKAICMG; Peptide with targeting and/or antimicrobial activity) | B. subtilis; also recorded: E. coli; also recorded: P. aeruginosa; also recorded: C. albicans; also recorded: E. faecalis; also recorded: C. jejuni |
| PF-351 (YLFFKGKKVAEEEATKDEVKR; Peptide with targeting and/or antimicrobial activity) | S. mutans |
| PF-352 (RVKKIG; Peptide with targeting and/or antimicrobial activity) | C. jeikeium |
| PF-359 (MTVMEDPGSEQRNKIQSPMKGEDFSALFGR; Peptide with targeting and/or antimicrobial activity) | S. epidermidis and B. fragilis and P. aeruginosa and C. albicans and MRSA and E. faecalis and C. jeikeium |
| PF-361 (NQVTEGIRLLVE; Peptide with targeting and/or antimicrobial activity) | S. epidermidis; also recorded: E. coli; also recorded: E. faecalis; also recorded: C. jejuni |
| PF-364 (LVNGIKI; Peptide with targeting and/or antimicrobial activity) | S. epidermidis; also recorded: B. fragilis; also recorded: P. aeruginosa; also recorded: C. jeikeium; also recorded: C. jejuni |
| PF-365 (LYKQKIQLEEELEKLKDDRQ; Peptide with targeting and/or antimicrobial activity) | S. epidermidis; also recorded: B. subtilis; also recorded: B. fragilis; also recorded: P. aeruginosa; also recorded: C. albicans |
| PF-367 (TKTPGTFTPGTGIQKTAVPL; Peptide with targeting and/or antimicrobial activity) | B. subtilis |
